Test results as given in US11214625B2, “Application of PCSK9 inhibitors in the preparation of drugs for the treatment of inflammatory immune diseases” (priority 2015, dated 2022).
Entries after “also recorded” stand apart in the source; their conditions may differ.

B1: PCSK9 monoclonal antibody: PCSK9 monoclonal antibody used for Examples 6 and 7 is Evolocumab; SEQ ID NO:3-6 (antibody, chains of the INN, looked up, V domains shown)
VH: EVQLVQSGAEVKKPGASVKVSCKASGYTLTSYGISWVRQAPGQGLEWMGWVSFYNGNTNYAQKLQGRGTMTTDPSTSTAYMELRSLRSDDTAVYYCARGYGMDVWGQGTTVTVSS
VL: ESALTQPASVSGSPGQSITISCTGTSSDVGGYNSVSWYQQHPGKAPKLMIYEVSNRPSGVSNRFSGSKSGNTASLTISGLQAEDEADYYCNSYTSTSMVFGGGTKLTVL

Key:
[1] = system: IMQ induced psoriatic lesions in BALB/c mice; assay: External (cream) use on IMQ induced psoriatic lesions of mice; assay type: in vivo; conditions: for erythema, scales and infiltration in the back of the mice / score of erythema, scales, infiltration and total score: cream 0.01% once daily; for erythema, scales and infiltration in the back of the mice: 7 days pretreatment, then 6 days with IMQ; for score of erythema, scales, infiltration and total score: daily score during 6 days of IMQ; for adverse reaction: external ointment once a day; for efficacy compared between groups: external use (ointment/cream)
Method: (§1) (1) 40 SPF female BALB/c mice aged 6-8 weeks were randomly divided into normal control group, model group, PCSK9 inhibitor group and PCSK9 monoclonal antibody group. There were 10 mice for each group. After intraperitoneal injection of pentobarbital sodium 80 mg/kg, the back was shaved with an area of about 2 cm×3 cm. The mice were feed separately for 1 day.
(2) In normal control group, vaseline was applied locally. In model group, small molecule inhibitor group and monoclonal antibody group, 62.5 mg of 5% imiquimod cream was applied on the back every day for 6 consecutive days, and photos were taken and the PASI score was evaluated.
(3) Pretreatment: vaseline was applied on the back skin with mics in normal control group and model group, PCSK9 small molecule inhibitor cream (0.01% concentration) was applied to inhibitor group once daily. And, PCSK9 monoclonal antibody cream (0.01% concentration) was applied to monoclonal antibody group once daily.
(4) After 7 days pretreatment, vaseline was applied on the back skin with mice in normal control group. At the same time, 62.5 mg 5% imiquimod cream was regularly applied daily on the back with mice in model group, small molecule inhibitor group and monoclonal antibody group. PCSK9 small molecule inhibitor cream or PCSK9 monoclonal antibody cream was applied after one hour. For 6 consecutive days, photos were taken and the PASI score was evaluated.

[2] = system: IMQ induced psoriasis-like lesions in BALB/c mice; assay: Subcutaneous injection in mice with IMQ induced psoriasis-like skin lesions; assay type: in vivo; conditions: for adverse reactions / therapeutic effect compared between groups: subcutaneous injection; for erythema, scales and infiltration in the back coating area: subcutaneous on first day (inhibitor 8 mg/kg, antibody 10 mg/kg), after 6 days of IMQ; for score of erythema, scales, infiltration and total score: subcutaneous, daily scoring during 6 days of IMQ
Method: as §1, with “The PCSK9 monoclonal antibody used for this example is Evolocumab. 40 SPF” for “(1) 40 SPF”, “group, PCSK9 small molecule inhibitor group” for “group, PCSK9 inhibitor group”
(1) In normal control group, Vaseline was applied locally. In model group, inhibitor group and monoclonal antibody group, 62.5 mg of 5% imiquimod cream was applied on the back every day for 6 consecutive days, photos were taken and the PASI score was evaluated.
(2) On the first day, normal saline was subcutaneously administrated to normal control group and model group, PCSK9 small molecule inhibitor was subcutaneously administrated (8 mg/kg, Purchased from Selleck Inc.) to inhibitor group, and PCSK9 monoclonal antibody was subcutaneously administrated to monoclonal antibody group (10 mg/kg, Purchased from abcam Inc.)

[3] = system: CD4 T cells isolated from peripheral blood of patients with psoriasis, eczema and urticaria; assay: Effect of PCSK9 protein on cytokine secretion of peripheral blood CD4+ T cells (ELISA); assay type: cell-based, human
Method: Materials: peripheral blood of 10 cases of psoriasis, 10 cases of eczema, 10 cases of urticaria, and 10 cases of normal people. ELISA kit was purchased from Raybiotech
After PBMC was isolated by Ficoll-Hypaque from human peripheral blood by density gradient centrifugation, washed with 10 times volume 1×BD beads buffer. Then 50 ul BD IMag TM CD4 beads were added to each […]. The beads were mixed well and incubated at room temperature for 30 minutes. 1 ml 1×BD magnetic bead buffer solution was added, and the cells were transferred to the round bottom tube and placed in the magnetic frame for 8 to 10 minutes. And then the supernatant was discarded and removed the test tube from the magnetic field. After resuspension of cells attached to tube wall with 1 ml 1×BD magnetic bead buffer, the tubes were placed in magnetic field for 2-4 min again. The supernatant was discarded removed it out of the magnetic field, resuspended the cells and placed the tube in the magnetic field for 2-4 min. The cells obtained from the […] can be used in subsequent experiments. BD IMag TM CD4 separation system was purchased from BD Biosciences Company.
The supernatant was collected after cell culture under different conditions. IFN-Gamma represented TH1 type cytokines, IL-4 represented TH2 type cytokines, and IL-17 represented TH17 cytokines. The detection of IFN-Gamma, IL-4, IL-17 was conducted by ELISA.

Row | Molecule | erythema, scales and infiltration in the back of the mice [1] | score of erythema, scales, infiltration and total score [1] | adverse reaction [1] | efficacy compared between groups [1] | adverse reactions [2] | therapeutic effect compared between groups [2] | erythema, scales and infiltration in the back coating area [2] | score of erythema, scales, infiltration and total score [2] | secretion of IL-17, IL-2 and IFN-Gamma by CD4 T cells ([3]; CD4 T cells of patients with psoriasis, eczema and urticaria, ELISA of supernatant) | expression of NFkb in CD4 T cells ([3]; especially in psoriatic patients)
1 | O=C(c1ccc(-n2nnc3cccnc32)cc1)N(c1ncccc1Cl)C1CCCNC1 (stereo not drawn) [PCSK9 small molecule inhibitor] | only slight erythema, scales and infiltration | significantly lower than that in PCSK9 monoclonal antibody group; also recorded: significantly reduce | no obvious adverse reaction | better than that of PCSK9 monoclonal antibody group; also recorded: significantly better than that of control group | no obvious adverse reactions | better than that of PCSK9 monoclonal antibody group; also recorded: significantly better than that of control group | only mild erythema, scales and infiltration | significantly lower than that of PCSK9 monoclonal antibody group; also recorded: reduce | – | –
2 | PCSK9 protein: PCSK9 protein added to CD4 T cells of patients | – | – | – | – | – | – | – | – | significantly promote | increased
3 | B1 | only slight erythema, scales and infiltration | significantly reduce | no obvious adverse reaction | significantly better than that of control group | no obvious adverse reactions | significantly better than that of control group | only mild erythema, scales and infiltration | reduce | – | –
